Reference: US9808003B2, “Herbicidally active 2-(substituted-phenyl)-cyclopentane-1,3-dione compounds and derivatives thereof” (Syngenta Limited, priority 2013, dated 2017)
Like-named read-outs stand apart in the source and are kept apart here.

Key:
Format in all cases: in vivo
Lolium perenne (LOLPE) [1] = experiment: Test 1A glasshouse assay, post-emergence herbicidal activity; details: Lolium perenne, 312 h, read-out: Post-emergence Herbicidal Activity (% Phytotoxicity) LOLPE
Method in brief: (§1)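 Test species were sown in pots of standard soil and cultivated for 8 days at 24/16 °C (day/night) with 14 h light and 65% humidity. Plants were next sprayed with the formulated active ingredient (acetone/water 50:50, 0.5% Tween 20). Damage was rated visually as % phytotoxicity 13 days later.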

[2] = system: Alopecurus myosuroides (ALOMY); experiment: as above; details: Alopecurus myosuroides, 312 h, read-out: Post-emergence Herbicidal Activity (% Phytotoxicity) ALOMY
Method in brief: as §1

[3] = system: Echinochloa crus-galli (ECHCG); experiment: as above; details: Echinochloa crus-galli, 312 h, read-out: Post-emergence Herbicidal Activity (% Phytotoxicity) ECHCG
Method in brief: as §1

Avena fatua (AVEFA) [4] = experiment: as above; details: Avena fatua, 312 h, read-out: Post-emergence Herbicidal Activity (% Phytotoxicity) AVEFA
Method in brief: as §1

Winter Wheat “Hereward” = experiment: Test 1B glasshouse assay, post-emergence herbicidal activity against cereal crops; details: 60 g/ha herbicide, 14 DAA
Method in brief: (§2)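 Visual percentage damage (100% = total, 0% = none) read 14 days after application, averaged over two replicates. Plants grown 14 days at 22/16 °C day/night before post-emergence spraying of unformulated compound (IF50/acetone, 0.5% v/v Adigor). Rates usually 60–120 g/ha; cloquintocet-mexyl 50 g/ha co-applied where stated.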

Winter Barley “Suzuka” = experiment: as above; details: 60 g/ha herbicide, 14 DAA
Method in brief: as §2

Spring Wheat “Teal” = experiment: as above; details: 60 g/ha herbicide, 14 DAA
Method in brief: as §2

[5] = system: Spring Barley “Harrington”; experiment: as above; details: 60 g/ha herbicide, 14 DAA
Method in brief: as §2

[6] = system: Lolium multiflorum (LOLMU); experiment: Test 1B glasshouse assay, post-emergence herbicidal activity against grassy weeds; details: 60 g/ha herbicide, 14 DAA
Method in brief: (§3)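 Herbicide applied post-emergence at rates such as 60 g/ha (±50 g/ha cloquintocet-mexyl) or 90 and 120 g/ha (with safener), rates varying per compound. Plants kept at 22/16 °C, watered twice daily; percentage phytotoxicity scored visually after 14 days.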

Setaria viridis (SETVI) = experiment: as above; details: 60 g/ha herbicide, 14 DAA
Method in brief: as §3

[7] = system: Alopecurus myosuroides (ALOMY); experiment: as above; details: 60 g/ha herbicide, 14 DAA
Method in brief: as §3

Poa annua (POAAN) = experiment: as above; details: 60 g/ha herbicide, 14 DAA
Method in brief: as §3

Avena fatua (AVEFA) [8] = experiment: as above; details: 60 g/ha herbicide, 14 DAA
Method in brief: as §3

Lolium perenne (LOLPE) [9] = experiment: Test 1A glasshouse assay, pre-emergence herbicidal activity; details: 312 h, read-out: Pre-emergence herbicidal activity (% phytotoxicity) LOLPE
Method: (§4) Seeds of a variety of test species were sown in standard soil in pots. After cultivation for one day (pre-emergence) or after 8 days cultivation (post-emergence) under controlled conditions in a glasshouse (at 24/16° C., day/night; 14 hours light; 65% humidity), the plants were sprayed with an aqueous spray solution derived from the formulation of the technical active ingredient in acetone/water (50:50) solution containing 0.5% Tween 20 (polyoxyethelyene sorbitan monolaurate, CAS RN 9005-64-5). The test plants were then grown under controlled conditions in a glasshouse (at 24/16° C., day/night; 14 hours light; 65% humidity) and watered twice daily. 13 days after application of the test herbicide, for pre- and post-emergence, the test was evaluated visually for percentage phytotoxicity to the plant (where 100%=total damage to plant; 0%=no damage to plant).
(§5) Test plants: Lolium perenne (LOLPE), Alopecurus myosuroides (ALOMY), Echinochloa crus-galli (ECHCG), and Avena fatua (AVEFA); these are all grassy monocotyledonous weeds.

[10] = system: Alopecurus myosuroides (ALOMY); experiment: as above; details: 312 h, read-out: Pre-emergence herbicidal activity (% phytotoxicity) ALOMY
Method: as §4, §5

[11] = system: Echinochloa crus-galli (ECHCG); experiment: as above; details: 312 h, read-out: Pre-emergence herbicidal activity (% phytotoxicity) ECHCG
Method: as §4, §5

Avena fatua (AVEFA) [12] = experiment: as above; details: 312 h, read-out: Pre-emergence herbicidal activity (% phytotoxicity) AVEFA
Method: as §4, §5

[13] = application rate 250 g/ha, 13 days after application, visual (100%=total damage; 0%=no damage)
[14] = 1000 g/ha, 13 days after application
[15] = 250 g/ha, 13 days after application

Cc1cc(-n2cc(Cl)cn2)cc(C)c1C1C(=O)CC(CCNC(=O)c2ccccn2)C1=O (racemic) [Compound A34, N-[2-[3-[4-(4-chloropyrazol-1-yl)-2,6-dimethyl-phenyl]-2,4-dioxo-cyclopentyl]ethyl]pyridine-2-carboxamide]
pest or weed control at 250 g/ha (Lolium perenne (LOLPE) [1]): 100%
pest or weed control at 250 g/ha [2]: 90%
pest or weed control at 250 g/ha [3]: 100%
pest or weed control at 250 g/ha (Avena fatua (AVEFA) [4]): 100%
Post-emergence herbicidal activity against cereal crops, percentage phytotoxicity, Winter Wheat “Hereward” (Winter Wheat “Hereward”; 0 g/ha cloquintocet-mexyl): 20%
Post-emergence herbicidal activity against cereal crops, percentage phytotoxicity, Winter Wheat “Hereward” (Winter Wheat “Hereward”; 50 g/ha cloquintocet-mexyl): 5%
Post-emergence herbicidal activity against cereal crops, percentage phytotoxicity, Winter Barley “Suzuka” (Winter Barley “Suzuka”; 0 g/ha cloquintocet-mexyl): 83%
Post-emergence herbicidal activity against cereal crops, percentage phytotoxicity, Winter Barley “Suzuka” (Winter Barley “Suzuka”; 50 g/ha cloquintocet-mexyl): 38%
Post-emergence herbicidal activity against cereal crops, percentage phytotoxicity, Spring Wheat “Teal” (Spring Wheat “Teal”; 0 g/ha cloquintocet-mexyl): 43%
Post-emergence herbicidal activity against cereal crops, percentage phytotoxicity, Spring Wheat “Teal” (Spring Wheat “Teal”; 50 g/ha cloquintocet-mexyl): 10%
Post-emergence herbicidal activity against cereal crops, percentage phytotoxicity, Spring Barley “Harrington” ([5]; 0 g/ha cloquintocet-mexyl): 83%
Post-emergence herbicidal activity against cereal crops, percentage phytotoxicity, Spring Barley “Harrington” ([5]; 50 g/ha cloquintocet-mexyl): 33%
Post-emergence herbicidal activity, percentage phytotoxicity, LOLMU ([6]; 0 g/ha cloquintocet-mexyl): 83%
Post-emergence herbicidal activity, percentage phytotoxicity, LOLMU ([6]; 50 g/ha cloquintocet-mexyl): 90%
Post-emergence herbicidal activity, percentage phytotoxicity, SETVI (Setaria viridis (SETVI); 0 g/ha cloquintocet-mexyl): 80%
Post-emergence herbicidal activity, percentage phytotoxicity, SETVI (Setaria viridis (SETVI); 50 g/ha cloquintocet-mexyl): 85%
Post-emergence herbicidal activity, percentage phytotoxicity, ALOMY ([7]; 0 g/ha cloquintocet-mexyl): 65%
Post-emergence herbicidal activity, percentage phytotoxicity, ALOMY ([7]; 50 g/ha cloquintocet-mexyl): 73%
Post-emergence herbicidal activity, percentage phytotoxicity, POAAN (Poa annua (POAAN); 0 g/ha cloquintocet-mexyl): 78%
Post-emergence herbicidal activity, percentage phytotoxicity, POAAN (Poa annua (POAAN); 50 g/ha cloquintocet-mexyl): 75%
Post-emergence herbicidal activity, percentage phytotoxicity, AVEFA (Avena fatua (AVEFA) [8]; 0 g/ha cloquintocet-mexyl): 100%
Post-emergence herbicidal activity, percentage phytotoxicity, AVEFA (Avena fatua (AVEFA) [8]; 50 g/ha cloquintocet-mexyl): 100%
inhibition at 250 g/ha (Lolium perenne (LOLPE) [9]): 100%
inhibition at 250 g/ha [10]: 90%
inhibition at 250 g/ha [11]: 100%
inhibition at 250 g/ha (Avena fatua (AVEFA) [12]): 100%

Cc1cc(C)c(C2C(=O)CC(CCNC(=O)c3ccccc3)C2=O)c(C)c1 (centres unmarked) [Compound A1, N-[2-[2,4-dioxo-3-(2,4,6-trimethylphenyl)cyclopentyl]ethyl]-benzamide]
pest or weed control at 250 g/ha (Lolium perenne (LOLPE) [1]; [13]): 100%
pest or weed control at 250 g/ha [2, 13]: 80%
pest or weed control at 250 g/ha [3, 13]: 100%
pest or weed control at 250 g/ha (Avena fatua (AVEFA) [4]; [13]): 90%
inhibition at 1000 g/ha (Lolium perenne (LOLPE) [9]; [14]): 100%
inhibition at 1000 g/ha [10, 14]: 90%
inhibition at 1000 g/ha [11, 14]: 100%
inhibition at 1000 g/ha (Avena fatua (AVEFA) [12]; [14]): 70%

Cc1cc(C)c(C2C(=O)CC(CCNC(=O)C(C)(C)C)C2=O)c(C)c1 (centres unmarked) [Compound A2]
pest or weed control at 250 g/ha (Lolium perenne (LOLPE) [1]; [13]): 100%
pest or weed control at 250 g/ha [2, 13]: 90%
pest or weed control at 250 g/ha [3, 13]: 80%
pest or weed control at 250 g/ha (Avena fatua (AVEFA) [4]; [13]): 80%
inhibition at 250 g/ha (Lolium perenne (LOLPE) [9]; [15]): 100%
inhibition at 250 g/ha [10, 15]: 90%
inhibition at 250 g/ha [11, 15]: 70%
inhibition at 250 g/ha (Avena fatua (AVEFA) [12]; [15]): 70%

Cc1cc(C)c(C2C(=O)CC(CCNC(=O)c3ccccn3)C2=O)c(C)c1 (centres unmarked) [Compound A3]
pest or weed control at 250 g/ha (Lolium perenne (LOLPE) [1]; [13]): 100%
pest or weed control at 250 g/ha [2, 13]: 90%
pest or weed control at 250 g/ha [3, 13]: 100%
pest or weed control at 250 g/ha (Avena fatua (AVEFA) [4]; [13]): 100%
inhibition at 250 g/ha (Lolium perenne (LOLPE) [9]; [15]): 100%
inhibition at 250 g/ha [10, 15]: 90%
inhibition at 250 g/ha [11, 15]: 100%
inhibition at 250 g/ha (Avena fatua (AVEFA) [12]; [15]): 90%

Cc1cc(C)c(C2C(=O)CC(CCNC(=O)C3CCCCC3)C2=O)c(C)c1 (centres unmarked) [Compound A13]
pest or weed control at 250 g/ha (Lolium perenne (LOLPE) [1]; [13]): 90%
pest or weed control at 250 g/ha [2, 13]: 70%
pest or weed control at 250 g/ha [3, 13]: 100%
pest or weed control at 250 g/ha (Avena fatua (AVEFA) [4]; [13]): 70%
inhibition at 250 g/ha (Lolium perenne (LOLPE) [9]; [15]): 90%
inhibition at 250 g/ha [10, 15]: 80%
inhibition at 250 g/ha [11, 15]: 100%
inhibition at 250 g/ha (Avena fatua (AVEFA) [12]; [15]): 80%

Cc1cc(C)c(C2C(=O)CC(CCNC(=O)c3ccc(F)cc3)C2=O)c(C)c1 (centres unmarked) [Compound A19]
pest or weed control at 250 g/ha (Lolium perenne (LOLPE) [1]; [13]): 100%
pest or weed control at 250 g/ha [2, 13]: 80%
pest or weed control at 250 g/ha [3, 13]: 100%
pest or weed control at 250 g/ha (Avena fatua (AVEFA) [4]; [13]): 70%
inhibition at 250 g/ha (Lolium perenne (LOLPE) [9]; [15]): 100%
inhibition at 250 g/ha [10, 15]: 90%
inhibition at 250 g/ha [11, 15]: 100%
inhibition at 250 g/ha (Avena fatua (AVEFA) [12]; [15]): 50%

Cc1cc(-c2ccc(F)cc2)cc(C)c1C1C(=O)CC(CCNC(=O)c2ccccn2)C1=O (centres unmarked) [Compound A32]
pest or weed control at 250 g/ha (Lolium perenne (LOLPE) [1]; [13]): 100%
pest or weed control at 250 g/ha [2, 13]: 90%
pest or weed control at 250 g/ha [3, 13]: 100%
pest or weed control at 250 g/ha (Avena fatua (AVEFA) [4]; [13]): 100%
inhibition at 250 g/ha (Lolium perenne (LOLPE) [9]; [15]): 100%
inhibition at 250 g/ha [10, 15]: 100%
inhibition at 250 g/ha [11, 15]: 100%
inhibition at 250 g/ha (Avena fatua (AVEFA) [12]; [15]): 80%

CC#Cc1cc(C)c(C2C(=O)CC(CCNC(=O)c3ccccn3)C2=O)c(C)c1 (centres unmarked) [Compound A33]
pest or weed control at 250 g/ha (Lolium perenne (LOLPE) [1]; [13]): 100%
pest or weed control at 250 g/ha [2, 13]: 90%
pest or weed control at 250 g/ha [3, 13]: 100%
pest or weed control at 250 g/ha (Avena fatua (AVEFA) [4]; [13]): 100%
inhibition at 250 g/ha (Lolium perenne (LOLPE) [9]; [15]): 100%
inhibition at 250 g/ha [10, 15]: 90%
inhibition at 250 g/ha [11, 15]: 100%
inhibition at 250 g/ha (Avena fatua (AVEFA) [12]; [15]): 80%

Cc1cc(C)c(C2C(=O)CC(CCNC(=O)c3c(Cl)c(C)nn3C)C2=O)c(C)c1 (centres unmarked) [Compound A145]
pest or weed control at 250 g/ha (Lolium perenne (LOLPE) [1]; [13]): 90%
pest or weed control at 250 g/ha [2, 13]: 100%
pest or weed control at 250 g/ha [3, 13]: 90%
pest or weed control at 250 g/ha (Avena fatua (AVEFA) [4]; [13]): 90%
inhibition at 250 g/ha (Lolium perenne (LOLPE) [9]; [15]): 100%
inhibition at 250 g/ha [10, 15]: 90%
inhibition at 250 g/ha [11, 15]: 90%
inhibition at 250 g/ha (Avena fatua (AVEFA) [12]; [15]): 40%

Cc1cc(C)c(C2C(=O)CC(CCNC(=O)c3c(Cl)nn(C)c3Cl)C2=O)c(C)c1 (centres unmarked) [Compound A159]
pest or weed control at 250 g/ha (Lolium perenne (LOLPE) [1]; [13]): 100%
pest or weed control at 250 g/ha [2, 13]: 100%
pest or weed control at 250 g/ha [3, 13]: 90%
pest or weed control at 250 g/ha (Avena fatua (AVEFA) [4]; [13]): 90%
inhibition at 250 g/ha (Lolium perenne (LOLPE) [9]; [15]): 100%
inhibition at 250 g/ha [10, 15]: 90%
inhibition at 250 g/ha [11, 15]: 100%
inhibition at 250 g/ha (Avena fatua (AVEFA) [12]; [15]): 80%
